Values after ≈ are worked out from the molar mass of the structure shown. Like-named read-outs stand apart in the source and are kept apart here.
Experiments:
in vivo = test: in vivo; design: species or system male SD rats; details: male, SD, rat, 5 mg/kg
Procedure: Test animals: male SD rats, weighing 180-280 g, purchased from Beijing Vital River Laboratory Animal Technology Co., Ltd.; animal Certificate of Conformity: SCXK (Beijing) 2006-0009. Six rats were tested for each compound. the compounds of the present invention, prepared in accordance with the methods of above Examples, dissolved in physiological saline. tigecycline, dissolved in physiological saline. Administration of the compounds of the present invention: intravenous bolus injection (iv), dose: 5 mg/kg, administrating volume: 5 mL/kg; gavage (po), dose: 5 mg/kg, administrating volume: 5 mL/kg. Administration of tigecycline: gavage (po), dose: 10 mg/kg, administrating volume: 5 mL/kg. Prior to administration help but water fasting for 16 hours, 4 hours after administration to food. Compound 9: iv blood sampling time point: denoted by 0 min before administration, 5 min, 15 min, 30 min, 1 […] after administration; po blood sampling time point: denoted by 0 min before administration, 5 min, 15 min, 30 min, 1 […] after administration; Compound 20: iv blood sampling time point: 5 min, 15 min, 30 min, 1 […] after administration; po blood sampling time point: 10 min, 30 min, 1 […] after administration; Compound 23: iv blood sampling time point: denoted by 0 min before administration, 5 min, 15 min, 30 min, 1 […] after administration; po blood sampling time point: denoted by 0 min before administration, 5 min, 15 min, 30 min, 1 […] after administration; Tigecycline: iv blood sampling time point: 5 min, 15 min, 30 min, 1 h, 2 h, 4 h, 6 h, 8 h after administration; po blood sampling time point: 10 min, 30 min, 1 […] after administration. Each time point is taken around 100 μl whole blood and placed in a heparinized tube, centrifugated at 8000 rpm/min at 4° C. for 6 minutes in a low-temperature high-speed centrifuge to separate plasma, the resulting plasma was frozen at -80° C. refrigerator. Plasma samples analysis: 20 μl of plasma was taken and added 200 μl of internal standard solution, subjected to vortex for 3 minutes, then to centrifugation at 12,000 rpm/min for 5 minutes. 100 μl of supernatant was taken and analyzed using LC-MS/MS. Formula Absolute Bioavailability F%=[AUC](po)×Dose(iv)/[AUC](iv)×Dose(po)

[1] = system: Methicillin-resistant Staphycoccus epidermidis (MRSE); test: antibacterial activity in vitro, agar dilution method; type: cell-based; details: Staphylococcus epidermidis
Description: (§1) The antibacterial spectrum and in vitro antibacterial activity of the compound of the present invention
(§2) Experimental method: the agar dilution method, with reference to Clinical And Laboratory Standards Institute. Methods for Dilution Antimicrobial Susceptibility Tests for Bacteria That Grow Aerobically; Approved Standard-Seventh Edition. CLSI Document M7-A7. Vol 26, no. 2, Wayne, Pa.: Clinical and Laboratory Standards Institute, 2006.
(§3) Wherein MIC represents the minimum inhibitory concentration, MIC90 represents the 90% inhibitory concentration.

Acinetobacter baumannii = test: as above; type: cell-based
Description: as §1, §2, §3

[2] = system: Methicillin-resistant Staphylococcus aureus (MRSA); test: as above; type: cell-based
Description: as §1, §2, §3

Klebsiella pneumoniae = test: as above; type: cell-based
Description: as §1, §2, §3

Escherichia coli = test: as above; type: cell-based
Description: as §1, §2, §3

Klebsiella oxytoca = test: as above; type: cell-based; details: Table 3
Description: as §1, §2, §3

[3] = in vivo pharmacokinetics experiment in rats (Test Example 2); details: male, SD, rat, plasma
Procedure: Test animals: male SD rats, weighing 230-250 g, purchased from Shanghai SLAC Laboratory Animals Co., Ltd., Certificate of Conformity: SCXK (SH) 2007-0005 22045; Six rats were tested for each compound.
Test substances: Compound 2 of the present invention, prepared in accordance with the method of Example 3; dissolved in physiological saline.
Internal standard substance: The acetonitrile solution of 50 ng/ml KBP-5747 was used as an internal standard solution in the measurement of Compound 2.
Administration of Compound 2 of the present invention: intravenous bolus injection (iv), dose: 5 mg/kg, administrating volume: 5 mL/kg; gavage (po), dose: 5 mg/kg, administrating volume: 5 mL/kg. Prior to administration help but water fasting for 12 hours, 4 hours after administration to food.
iv blood sampling time point: denoted by 0 min before administration, 5 min, 15 min, 30 min, 1 h, 2 h, 4 h, 8 h, 24 h, 30 h, 48 h after administration
po blood sampling time point: denoted by 0 min before administration, 5 min, 15 min, 30 min, 1 h, 2 h, 4 h, 8 h, 24 h, 30 h, 48 h after administration
Each time point to take around 150 μl whole blood, centrifugated at 2000×g at 4° C. for 5 minutes in a low-temperature high-speed centrifuge to separate plasma, the resulting plasma frozen was at −70° C. in a refrigerator.
Plasma samples analysis: 30 μl of plasma was taken and added 100 μl of internal standard solution, subjected to vortex at 14,000 rev/min for 5 minutes, then to centrifugation at 12,000 rpm/min for 5 minutes. The supernatant was taken and analyzed using LC-MS/MS.
Formula Absolute Bioavailability F%=[AUC]INF (po)×Dose(iv)/[AUC]INF (iv)×Dose(po)

Streptococcus pyogenes = test: antibacterial activity in vitro, agar dilution method; type: cell-based; details: Table 2
Description: as §1, §2, §3

[4] = Table 3, agar dilution, read-out: antibacterial activity MIC, Acinetobacter baumannii
[5] = Table 2, agar dilution, read-out: antibacterial activity MIC, Acinetbacter baumannii

`CN(C)c1cc(CN2CC3(CCC3)C2)c(O)c2c1C[C@H]1C[C@H]3[C@H](N(C)C)C(O)=C(C(N)=O)C(=O)[C@@]3(O)C(O)=C1C2=O` [Compound 9, (4S,4aS,5aR,12aS)-9-(2-azaspiro[3.3]heptan-2-ylmethyl)-4,7-bis(dimethylamino)-3,10,12,12a-tetrahydroxy-1,1′-dioxo-1,4,4a,5,5a,6,11,12a-octahydrotetracene-2-carboxamide] showed an AUC(0-t) (in vivo; iv) of 6070 ng·h/mL, a Vd (in vivo; iv) of 4.65 L/kg and a clearance (in vivo; iv) of 13.3 mL/min/kg. For the same compound, the half-life (in vivo; iv) was 5.85 h, the AUC(0-t) (in vivo; po) was 216 ng·h/mL and the Cmax (in vivo; po) was 35.6 ng/mL. The Tmax (in vivo; po) was 1 h, the bioavailability (in vivo; po) was 3.56% and the MIC ([1]; Table 3) was 0.5 µg/mL (≈ 0.882 µM). For the same compound, the MIC (Acinetobacter baumannii; [4]) was 4 µg/mL (≈ 7.06 µM), the MIC ([2]; Table 3, agar dilution) was 0.5 µg/mL (≈ 0.882 µM) and the MIC (Klebsiella pneumoniae; Table 3) was 1 µg/mL (≈ 1.76 µM). It also gave an MIC (Escherichia coli; Table 3) of 0.5 µg/mL (≈ 0.882 µM) and an MIC (Klebsiella oxytoca) of 1 µg/mL (≈ 1.76 µM).

With `CN(C)c1cc(CN2CCC3(CC2)CC3)c(O)c2c1C[C@H]1C[C@H]3[C@H](N(C)C)C(O)=C(C(N)=O)C(=O)[C@@]3(O)C(O)=C1C2=O` [Compound 20, (4S,4aS,5aR,12aS)-9-(6-azaspiro[2.5]octan-6-ylmethyl)-4,7-bis(dimethylamino)-3,10,12,12a-tetrahydroxy-1,1′-dioxo-1,4,4a,5,5a,6,11,12a-octahydrotetracene-2-carboxamide] the AUC(0-t) (in vivo; iv) was 11600 ng·h/mL, the Vd (in vivo; iv) was 2.22 L/kg and the clearance (in vivo; iv) was 7.33 mL/min/kg. For the same compound, the half-life (in vivo; iv) was 4.98 h, the AUC(0-t) (in vivo; po) was 605 ng·h/mL and the Cmax (in vivo; po) was 116 ng/mL. For the same compound, the Tmax (in vivo; po) was 2 h, the bioavailability (in vivo; po) was 5.22% and the MIC ([1]; Table 3) was 1 µg/mL (≈ 1.72 µM). It also gave an MIC (Acinetobacter baumannii; [4]) of 1 µg/mL (≈ 1.72 µM), an MIC ([2]; Table 3, agar dilution) of 0.5 µg/mL (≈ 0.861 µM) and an MIC (Klebsiella pneumoniae; Table 3) of 2 µg/mL (≈ 3.44 µM). It also gave an MIC (Escherichia coli; Table 3) of 0.5 µg/mL (≈ 0.861 µM) and an MIC (Klebsiella oxytoca) of 1 µg/mL (≈ 1.72 µM).

For `CN(C)c1cc(CN2CC3(C2)CC(F)(F)C3)c(O)c2c1C[C@H]1C[C@H]3[C@H](N(C)C)C(O)=C(C(N)=O)C(=O)[C@@]3(O)C(O)=C1C2=O` [Compound 16, (4S,4aS,5aR,12aS)-9-((6,6-difluoro-2-azaspiro[3.3]heptan-2-yl)methyl)-4,7-bis(dimethylamino)-3,10,12,12a-tetrahydroxy-1,1′-dioxo-1,4,4a,5,5a,6,11,12a-octahydrotetracene-2-carboxamide], the MIC ([1]; Table 3) was 0.5 µg/mL (≈ 0.83 µM), the MIC (Acinetobacter baumannii; [4]) was 1 µg/mL (≈ 1.66 µM) and the MIC ([2]; Table 3, agar dilution) was 0.5 µg/mL (≈ 0.83 µM). The MIC (Klebsiella pneumoniae; Table 3) was 1 µg/mL (≈ 1.66 µM), the MIC (Escherichia coli; Table 3) was 1 µg/mL (≈ 1.66 µM) and the MIC (Klebsiella oxytoca) was 1 µg/mL (≈ 1.66 µM).

`CN(C)c1cc(CNC2CC(F)(F)C2)c(O)c2c1C[C@H]1C[C@H]3[C@H](N(C)C)C(O)=C(C(N)=O)C(=O)[C@@]3(O)C(O)=C1C2=O` [Compound 2, (4S,4aS,5aR,12aS)-9-((3,3-difluorocyclobutylamino)methyl)-4,7-bis(dimethylamino)-3,10,12,12a-tetrahydroxy-1,1′-dioxo-1,4,4a,5,5a,6,11,12a-octahydrotetracene-2-carboxamide] showed an AUC(0-inf) ([3]; iv, 5 mg/kg) of 2290 ng·h/mL, a clearance ([3]; iv, 5 mg/kg) of 37.2 mL/min/kg and a half-life ([3]; iv, 5 mg/kg) of 4.07 h. It also gave a Vd ([3]; iv, 5 mg/kg, read-out: Vss) of 5.12 L/kg, a bioavailability ([3]; po 5 mg/kg vs iv 5 mg/kg, read-out: F % (absolute bioavailability)) of 33.9% and an AUC(0-inf) ([3]; po (gavage), 5 mg/kg) of 777 ng·h/mL. For the same compound, the Cmax ([3]; po (gavage), 5 mg/kg) was 251 ng/mL, the Tmax ([3]; po (gavage), 5 mg/kg) was 1 h and the half-life ([3]; po (gavage), 5 mg/kg) was 2.32 h. The MIC ([1]; Table 2) was 0.25 µg/mL (≈ 0.434 µM), the MIC (Acinetobacter baumannii; [5]) was 0.5 µg/mL (≈ 0.867 µM) and the MIC ([2]; Table 2, agar dilution) was 0.5 µg/mL (≈ 0.867 µM). The MIC (Klebsiella pneumoniae; Table 2) was 4 µg/mL (≈ 6.94 µM), the MIC (Escherichia coli; Table 2) was 1 µg/mL (≈ 1.73 µM) and the MIC (Streptococcus pyogenes) was 0.125 µg/mL (≈ 0.217 µM).

With `CN(C)c1cc(CNC2CC3(CC3)C2)c(O)c2c1C[C@H]1C[C@H]3[C@H](N(C)C)C(O)=C(C(N)=O)C(=O)[C@@]3(O)C(O)=C1C2=O` [Compound 3, (4S,4aS,5aR,12aS)-9-((spiro[2.3]hexan-5-ylamino)methyl)-4,7-bis(dimethylamino)-3,10,12,12a-tetrahydroxy-1,1′-dioxo-1,4,4a,5,5a,6,11,12a-octahydrotetracene-2-carboxamide] the MIC ([1]; Table 2) was 0.5 µg/mL (≈ 0.882 µM), the MIC (Acinetobacter baumannii; [5]) was 4 µg/mL (≈ 7.06 µM) and the MIC ([2]; Table 2, agar dilution) was 0.5 µg/mL (≈ 0.882 µM). The MIC (Klebsiella pneumoniae; Table 2) was 2 µg/mL (≈ 3.53 µM), the MIC (Escherichia coli; Table 2) was 1 µg/mL (≈ 1.76 µM) and the MIC (Streptococcus pyogenes) was 0.06 µg/mL (≈ 0.106 µM).

`CN(C)c1cc(CNCC2CC(F)(F)C2)c(O)c2c1C[C@H]1C[C@H]3[C@H](N(C)C)C(O)=C(C(N)=O)C(=O)[C@@]3(O)C(O)=C1C2=O` [Compound 10, (4S,4aS,5aR,12aS)-9-(((3,3-difluorocyclobutyl)methylamino)methyl)-4,7-bis(dimethylamino)-3,10,12,12a-tetrahydroxy-1,11-dioxo-1,4,4a,5,5a,6,11,12a-octahydrotetracene-2-carboxamide] showed an MIC ([1]; Table 2) of 0.5 µg/mL (≈ 0.847 µM), an MIC (Acinetobacter baumannii; [5]) of 4 µg/mL (≈ 6.77 µM) and an MIC ([2]; Table 2, agar dilution) of 1 µg/mL (≈ 1.69 µM). It also gave an MIC (Klebsiella pneumoniae; Table 2) of 2 µg/mL (≈ 3.39 µM), an MIC (Escherichia coli; Table 2) of 1 µg/mL (≈ 1.69 µM) and an MIC (Streptococcus pyogenes) of 0.125 µg/mL (≈ 0.212 µM).

For `CN(C)c1cc(CN2CC(F)C2)c(O)c2c1C[C@H]1C[C@H]3[C@H](N(C)C)C(O)=C(C(N)=O)C(=O)[C@@]3(O)C(O)=C1C2=O` [Compound 19, (4S,4aS,5aR,12aS)-4,7-bis(dimethylamino)-9-((3-fluoroazetidin-1-yl)methyl)-3,10,12,12a-tetrahydroxy-1,11-dioxo-1,4,4a,5,5a,6,11,12a-octahydrotetracene-2-carboxamide], the MIC ([1]; Table 3) was 0.5 µg/mL (≈ 0.918 µM), the MIC (Acinetobacter baumannii; [4]) was 0.25 µg/mL (≈ 0.459 µM) and the MIC ([2]; Table 3, agar dilution) was 0.5 µg/mL (≈ 0.918 µM). It also gave an MIC (Klebsiella pneumoniae; Table 3) of 1 µg/mL (≈ 1.84 µM), an MIC (Escherichia coli; Table 3) of 1 µg/mL (≈ 1.84 µM) and an MIC (Klebsiella oxytoca) of 0.25 µg/mL (≈ 0.459 µM).

— US9365499B2, “9-aminomethyl substituted tetracycline compounds” (KBP Biosciences Co., Ltd., priority 2011, dated 2016)
